Measured values as given in patent US20240238214A1, “NANOCONSTRUCTS AND NANOPARTICLE-MEDIATED DELIVERY OF IMMUNOGENIC CELL DEATH INDUCERS FOR ENHANCING CANCER IMMUNOTHERAPY” (Purdue Research Foundation, priority 2021, published 2024).
Converted amounts (≈) assume the structure as drawn.

What was measured:
[1] = system: CT26 cells phagocytosed by JAWSII DCs; experiment: Phagocytosis assay; format: cell-based, murine; settings: CT26 treated with IC50 of drug, co-cultured with JAWSII for 24 hours
Method: A phagocytosis assay was performed to observe whether cells killed by ICD inducers will be taken up by dendritic cells (DCs).
CT26 cells were stained with Cell Tracker Green for 30 mins (0.5 μM) and washed once with cold serum free DMEM. CT26 cells were incubated overnight in 10% FBS media to allow any unbound dye to be inactivated. CT26 cells were collected and seeded (150,000 cells/well) in 6 wells plate for 24 hours. JAWSII cells were collected and stained with Cell Tracker Deep Red for 30 mins (0.5 μM) and washed once with cold serum free RPMI. JAWSII cells were incubated overnight in 10% FBS media to allow any unbound dye to be inactivated. […] After the treatment, CT26 containing 6 wells plate was centrifuged at 500 g×8 mins. Supernatant was aspirated to remove any remaining drugs. JAWSII cells (150,000 cells/well) were added to CT26, and cells were co-cultured for 24 hours. The co-cultured cells were collected, resuspended in the staining buffer, and analyzed by the Accuri C6 flow cytometer.

[2] = system: CT26 murine carcinoma, B16F10 murine carcinoma and 4T1 breast mammary carcinoma cells; experiment: ATP secretion into medium (ATP determination kit); format: cell-based; settings: treated at IC50 for 24 hours; supernatant
Method: (§1) The release of DAMPs from the treated cells were then analyzed (e.g., CRT exposure was measured by flow cytometry, HMGB1 was measured by quantifying western blot, and ATP was measured by ATP determination kit).
After 24 hours, supernatants were collected, and the amount of ATP in the supernatant was measured with ATP determination kit.

CT26 cells = experiment: In vivo tumor vaccination study; set-up: species or system Balb/c mice; settings: cells treated at 100× IC50 for 24 hours; three million dead cells; 500,000 live CT26 cells after 9 days
Method: The vaccination study, a standard test to verify bona fide ICD, was performed with PTX and CFZ (e.g., the candidate drugs) in vivo. The vaccination study involved generating tumor antigens by exposing tumor cells to lethal dose of ICD inducers. Potential ICD inducer-treated cells (i.e., the primary dose) were injected subcutaneously to immunocompetent mice. One week later, live tumor cells were injected on the contralateral side (i.e., the rechallenge), and the growth of the tumor was monitored to determine if the drug-killed tumor cells (i.e., the primary dose) can serve as a vaccine and prevent the growth of a live cell challenge.
Dead cells were collected and washed with PBS twice to remove excess amount of the drug.
Three million dead cells were injected into the right flanks of 6-week-old immunocompetent female Balb/c mice (i.e., the primary dose), the syngeneic host of CT26 cells. After 9 days, 500,000 live CT26 cells (live tumor cells) were inoculated subcutaneously in the contralateral side of the mice (i.e., the rechallenge) and tumor growth was monitored to determine the development of anti-tumor immunity.

[3] = system: CT26 murine carcinoma, B16F10 murine carcinoma and 4T1 breast mammary carcinoma cells; experiment: CRT exposure on cell surface (flow cytometry); format: cell-based; settings: treated at IC50 for 6 hours; compared to control groups
Method: as §1
After 6 hours, cells were washed with PBS and fixed with 4% […] (PFA). Fixed cells were incubated with FITC-labeled CRT antibodies. Cells were analyzed by the Accuri C6 flow cytometer to determine the population of CRT-positive cells.

CT26 murine carcinoma = experiment: Cytotoxicity by MTT assay, CT26; format: cell-based; settings: Mus musculus; CT26 cells
Method: (§2) As the nanoparticles hereof can be used to deliver ICD inducers to create tumor antigens, which need to be taken up by APCs, in certain embodiments, it is important for the formulations to kill tumor cells, while saving the host immune cells.
Cytotoxicity was assessed by the MTT assay. CT26 cells were seeded in 96 wells with 3,000 cells/well and cultured until 30% confluency. Cells were treated with varying concentrations of Drug, Drug@NP, Drug@NP-pD, Drug@NP-pD-ATP for 24 hours. After 24 hours, media was replaced, the cells were incubated for an additional 24 hours, and an MTT assay was performed to measure the number of viable cells present (see FIGS. 13A and 14A).

[4] = cited from earlier work
[5] = system: CT26 murine carcinoma, B16F10 murine carcinoma and 4T1 breast mammary carcinoma cells; experiment: HMGB1 release into medium (western blot); format: cell-based; settings: treated at IC50 for 24 hours; supernatant
Method: After 24 hours, supernatants were collected, and a western blot immunoassay was performed to determine the amount of HMGB1 present.

physchem = settings: aqueous with cosolvent or surfactant or cyclodextrin
JAWSII DCs = experiment: Cytotoxicity by MTT assay, JAWSII; format: cell-based, murine; settings: 96 hours
Method: as §2
For JAWSII cells, JAWSII cells were seeded in 96 wells with 20,000 cells/well.

JAWSII cells = experiment: Stability against apyrase (DC migration assay in Transwell); format: cell-based, murine; settings: 10 μM ATP, 0.5 units of apyrase, 4 hours
Method: To screen the effect of degrading enzyme to the nanoparticle-bound ATP, apyrase (a CD39 equivalent) was co-incubated with ATP or NP-pD-ATP, and a DC migration assay was performed in a Transwell (FIG. 9A). For the migration assay, 100 μL of 2×10^5 JAWSII cells, suspended in media, were added to the top of the Transwell (8 μm pore size). 600 μL of media containing 10 μM ATP conjugated nanoparticle was added to the bottom well (with or without 0.5 units of apyrase). Cells were incubated in 37° C. for 4 hours. Bottom media was collected to analyze the number of cells migrated by flow cytometry.

apyrase = molecular target: T1, apyrase (Solanum tuberosum, UniProt P80595); experiment: ATP level after incubation with apyrase (ATP bioluminescence assay); format: biochemical; settings: 10 μM ATP, 5 units/mL apyrase, 37° C., 10 minutes
T1 construct: purchased Thermo Fisher Scientific Inc. (Waltham, MA)
T1 sequence (P80595 1-454): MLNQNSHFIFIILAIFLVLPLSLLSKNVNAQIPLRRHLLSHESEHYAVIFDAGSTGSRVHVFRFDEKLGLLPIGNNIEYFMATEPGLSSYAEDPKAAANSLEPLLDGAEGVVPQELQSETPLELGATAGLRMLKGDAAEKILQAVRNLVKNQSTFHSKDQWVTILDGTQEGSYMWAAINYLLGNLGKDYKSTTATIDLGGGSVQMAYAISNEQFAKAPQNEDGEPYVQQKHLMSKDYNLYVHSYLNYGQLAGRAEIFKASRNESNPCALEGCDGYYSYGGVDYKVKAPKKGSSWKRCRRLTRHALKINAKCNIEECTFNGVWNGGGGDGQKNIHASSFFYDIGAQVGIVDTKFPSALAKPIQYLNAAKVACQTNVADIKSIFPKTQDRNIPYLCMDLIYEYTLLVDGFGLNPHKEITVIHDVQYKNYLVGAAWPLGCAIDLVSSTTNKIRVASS
Method: Further, to confirm the activity of apyrase against ATP, 10 μM ATP was incubated with or without 5 units/mL apyrase in 37° C. for 10 minutes. The ATP level after incubation was measured by ATP bioluminescence assay.

| Structure (SMILES) | uptake of CT26 to the dendritic cells [1] | ATP secretion [2] | tumor growth after live CT26 rechallenge in mice vaccinated with drug-treated dead cells (CT26 cells) | CRT exposure [3] | IC50 (CT26 murine carcinoma) [nM] | water solubility [4] [µg/mL] | HMGB1 release [5] | solubility (physchem) [µg/mL] | concentration with sudden decrease of DC viability (JAWSII DCs) [µM] | chemotactic ability (DC migration) in the presence of apyrase (JAWSII cells) | ATP level after incubation with apyrase (apyrase) |
| --- | --- | --- | --- | --- | --- | --- | --- | --- | --- | --- | --- |
| CC(C)C[C@H](NC(=O)[C@H](CCc1ccccc1)NC(=O)CN1CCOCC1)C(=O)N[C@@H](Cc1ccccc1)C(=O)N[C@@H](CC(C)C)C(=O)[C@@]1(C)CO1 [CFZ, carfilzomib] | significantly increased the uptake of CT26 to the dendritic cells | caused the secretion of ATP | tumors did not grow | induced the exposure of CRT | 15 | 0.7 to 3.6 | induced the release of HMGB1 | 9 (≈ 12.5 µM) |  |  |  |
| Nc1ccn([C@@H]2O[C@H](CO)[C@@H](O)C2(F)F)c(=O)n1 [GEM, gemcitabine] |  |  | Tumors grew in all animals | failed to induce CRT exposure |  |  | failed to induce HMGB1 secretion |  |  |  |  |
| O=C1[O][Pt]2([NH][C@@H]3CCCC[C@H]3[NH]2)[O]C1=O [OXA, oxaliplatin] |  |  | tumors did not grow |  |  |  | induced the release of HMGB1 |  |  |  |  |
| CC(=O)O[C@H]1C(=O)[C@@]2(C)[C@H]([C@H](OC(=O)c3ccccc3)[C@]3(O)C[C@H](OC(=O)[C@H](O)[C@@H](NC(=O)c4ccccc4)c4ccccc4)C(C)=C1C3(C)C)[C@]1(OC(C)=O)CO[C@@H]1C[C@@H]2O [PTX, paclitaxel] | significantly increased the uptake of CT26 to the dendritic cells | caused the secretion of ATP | tumors did not grow | induced the exposure of CRT | 250 |  | induced the release of HMGB1 |  | ≥ 30 |  |  |
| Nc1ncnc2c1ncn2[C@@H]1O[C@H](COP(=O)(O)OP(=O)(O)OP(=O)(O)O)[C@@H](O)[C@H]1O [free ATP, adenosine triphosphate] |  |  |  |  |  |  |  |  |  | completely abolished the chemotactic ability of free ATP | not detectable |
